Experimental data as given in patent US6680367B1, “Fluorescent CRF receptor-binding peptides” (Advanced Bioconcept Company, priority 1995, dated 2004).
Peptide text beside a SMILES is read from it. GABA = NCCCC(=O)O

Tests used:
Assay type in all cases: binding
CRF1, CRF2 = test: Displacement of 125I labeled CRF from CRF receptor subtypes, recombinant cells; conditions: Receptor CRF1, CRF2 (one value printed for both), displacing radiolabeled CRF
Description: (§1) Determination of IC50 for labeled peptides. […] In order to fully dissolve the peptide, the sample was reconstituted in 20 uL DMSO, vortexing well to ensure that all powder was completely dissolved, and then adding 0.48 mL of double distilled water. The stock solution was aliquoted to avoid repeated freezing and thawing of peptide. Unused aliquots were stored at −20° C. (protected from light) for maximum 24 hr.
(§2) Data for native and labeled peptides were analyzed by non-linear curve fitting. This included statistical evaluation of fit and calculation of IC50 and Ki values.

CRF1 = target: T1, CRF1 (Homo sapiens, UniProt P34998); test: Displacement of 125I labeled sauvagine from CRF1, recombinant cells
T1 construct: expressed in transfected cells
T1 sequence (P34998 24-415): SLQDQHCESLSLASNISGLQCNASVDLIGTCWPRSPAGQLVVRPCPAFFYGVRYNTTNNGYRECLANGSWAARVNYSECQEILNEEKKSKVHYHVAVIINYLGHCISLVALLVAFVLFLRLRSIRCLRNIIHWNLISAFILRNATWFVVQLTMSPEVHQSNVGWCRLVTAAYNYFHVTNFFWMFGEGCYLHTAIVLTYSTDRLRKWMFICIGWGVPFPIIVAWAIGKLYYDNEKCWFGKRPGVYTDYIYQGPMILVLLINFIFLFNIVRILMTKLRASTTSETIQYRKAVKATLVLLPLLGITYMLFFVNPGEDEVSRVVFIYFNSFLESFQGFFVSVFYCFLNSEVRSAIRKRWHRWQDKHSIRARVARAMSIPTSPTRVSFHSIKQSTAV
Description: as §1, §2

CRF2 = target: T2, CRF2 (Homo sapiens, UniProt Q13324); test: Displacement of 125I labeled sauvagine from CRF2, recombinant cells
T2 construct: expressed in transfected cells
T2 sequence (Q13324 1-411): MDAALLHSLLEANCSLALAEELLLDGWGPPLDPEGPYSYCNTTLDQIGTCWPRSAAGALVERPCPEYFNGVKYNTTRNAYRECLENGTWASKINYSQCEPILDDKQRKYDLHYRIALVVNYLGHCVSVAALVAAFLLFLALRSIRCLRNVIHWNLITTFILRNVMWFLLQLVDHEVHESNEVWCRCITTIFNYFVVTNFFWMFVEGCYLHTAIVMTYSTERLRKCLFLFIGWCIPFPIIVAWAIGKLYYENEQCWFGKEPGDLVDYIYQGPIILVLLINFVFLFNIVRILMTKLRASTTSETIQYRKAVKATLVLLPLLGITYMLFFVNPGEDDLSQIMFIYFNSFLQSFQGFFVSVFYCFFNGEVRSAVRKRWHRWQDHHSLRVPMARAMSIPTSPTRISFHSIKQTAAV
Description: as §1, §2

Compound | Ki (CRF1, CRF2) [nM] | Ki (CRF1) [nM] | Ki (CRF2) [nM]
CC[C@H](C)[C@H](NC(=O)[C@@H](NC(=O)[C@H](CC(=O)O)NC(=O)[C@H](CC(C)C)NC(=O)[C@H](CC(C)C)NC(=O)[C@H](CC(C)C)NC(=O)[C@H](CCCNC(=N)N)NC(=O)[C@H](CC(N)=O)NC(=O)[C@H](CC(N)=O)NC(=O)[C@H](C)NC(=O)[C@H](C)NC(=O)[C@H](CCC(N)=O)NC(=O)[C@H](CCC(N)=O)NC(=O)[C@H](CCCCN)NC(=O)[C@H](CCC(=O)O)NC(=O)[C@H](CCCCN)NC(=O)[C@H](CCC(=O)O)NC(=O)[C@H](CCC(N)=O)NC(=O)[C@H](CCCCN)NC(=O)[C@H](CCC(=O)O)NC(=O)[C@@H](NC(=O)[C@H](CCC(=O)O)NC(=O)[C@@H](NC(=O)[C@H](CCSC)NC(=O)[C@H](CCCCN)NC(=O)[C@H](CCCNC(=N)N)NC(=O)[C@H](CC(C)C)NC(=O)[C@H](CC(C)C)NC(=O)[C@H](CCC(=O)O)NC(=O)[C@H](CC(C)C)NC(=O)[C@H](CO)NC(=O)[C@H](CC(C)C)NC(=O)[C@H](CC(=O)O)NC(=O)[C@@H](NC(=O)[C@H](CO)NC(=O)[C@@H](NC(=O)[C@@H]1CCCN1C(=O)[C@@H]1CCCN1C(=O)CNC(=O)[C@@H]1CCC(=O)N1)[C@@H](C)CC)[C@@H](C)CC)[C@@H](C)CC)[C@@H](C)CC)[C@@H](C)O)C(N)=O [Sauvagine, sauvagine] | 7.9 | – | –
CC[C@H](C)[C@H](NC(=O)[C@H](CO)NC(=O)[C@H](CC(C)C)NC(=O)[C@H](CO)NC(=O)[C@@H]1CCCN1C(=O)[C@H](CC(N)=O)NC(=O)[C@@H](N)CC(=O)O)C(=O)N[C@@H](CC(=O)O)C(=O)N[C@@H](CC(C)C)C(=O)N[C@H](C(=O)N[C@@H](Cc1ccccc1)C(=O)N[C@@H](Cc1cnc[nH]1)C(=O)N[C@@H](CC(C)C)C(=O)N[C@@H](CC(C)C)C(=O)N[C@@H](CCCNC(=N)N)C(=O)N[C@H](C(=O)N[C@@H](CC(C)C)C(=O)N[C@@H](CC(C)C)C(=O)N[C@@H](CCC(=O)O)C(=O)N[C@@H](CC(C)C)C(=O)N[C@@H](C)C(=O)N[C@@H](CCCNC(=N)N)C(=O)N[C@H](C(=O)N[C@@H](CCC(N)=O)C(=O)N[C@@H](CO)C(=O)N[C@@H](CCC(N)=O)C(=O)N[C@@H](CCCNC(=N)N)C(=O)N[C@@H](CCC(=O)O)C(=O)N[C@@H](CCCNC(=N)N)C(=O)N[C@@H](C)C(=O)N[C@@H](CCC(=O)O)C(=O)N[C@@H](CCC(N)=O)C(=O)N[C@@H](CC(N)=O)C(=O)N[C@@H](CCCNC(=N)N)C(=O)N[C@H](C(=O)N[C@H](C(=O)N[C@@H](Cc1ccccc1)C(=O)N[C@@H](CC(=O)O)C(=O)N[C@@H](CO)C(=O)N[C@H](C(N)=O)C(C)C)[C@@H](C)CC)[C@@H](C)CC)[C@@H](C)O)[C@@H](C)O)[C@@H](C)O [urocortin] (H-DNPSLSIDLTFHLLRTLLELARTQSQRERAEQNRIIFDSV-NH2) | – | 0.64 | 4.3
fluoresceinyl-sauvagine ({Fluorescein-GABA}-GPPISIDLSLELLRKMIEIEKQEKEKQQAANNRLLLDTI-NH2; listed as Xenopus tropicalis) [Fluo*-sauvagine] | 3.8 | – | –
